# Measured values published in ChEMBL document CHEMBL4118122, “Identification and biological evaluation of thiazole-based inverse agonists of RORγt” (Bioorg Med Chem Lett, 2018).
# How the values were obtained:
# [1] = molecular target: Type-1 angiotensin II receptor (Homo sapiens) (UniProt P30556); assay: Displacement of [125I][Sar1,Ile8]-AT-II from human recombinant AT1 receptor at 10 uM after 120 mins by scintillation counting analysis relative to control
# [2] = molecular target: Dual specificity protein kinase CLK2 (Homo sapiens) (UniProt P49760); assay: Inhibition of recombinant GST-tagged human CLK2 catalytic domain (137 to 498 residues) expressed in baculovirus expression system at 10 uM in presence of ATP relative to control
# [3] = molecular target: Glycogen synthase kinase-3 beta (Homo sapiens) (UniProt P49841); assay: Inhibition of recombinant full length human His-tagged GSK3beta expressed in baculovirus expression system at 10 uM in presence of ATP relative to control
# [4] = molecular target: Calcium/calmodulin-dependent protein kinase type II subunit alpha (Homo sapiens) (UniProt Q9UQM7); assay: Inhibition of CamK2alpha (unknown origin) at 10 uM in presence of ATP relative to control
# Nociceptin receptor = Nociceptin receptor (Homo sapiens, UniProt P41146); assay: Displacement of [3H]nociceptin from human recombinant NOP receptor after 60 mins by scintillation counting analysis
# [5] = molecular target: C-C chemokine receptor type 1 (Homo sapiens) (UniProt P32246); assay: Displacement of [125I]MIP-1alpha from human recombinant CCR1 receptor at 10 uM after 120 mins by scintillation counting analysis relative to control
# [6] = molecular target: Adrenergic receptor alpha-1 (Rattus norvegicus) (UniProt P15823+P23944+P43140); assay: Displacement of [3H]-prazosin from rat alpha1 adrenoceptor at 1 uM after 60 mins by scintillation counting analysis relative to control; type: protein assay
# [7] = molecular target: Neuropeptide Y receptor type 1 (Homo sapiens) (UniProt P25929); assay: Displacement of [125I]peptide YY from human Y1 receptor at 1 uM after 120 mins by scintillation counting analysis relative to control
# [8] = molecular target: Insulin-like growth factor 1 receptor (Homo sapiens) (UniProt P08069); assay: Inhibition of recombinant His-tagged human IGF1R cytoplasmic domain (960 to […] residues) expressed in baculovirus expression system at 10 uM in presence of ATP relative to control
# Homo sapiens = organism: Homo sapiens; assay: Binding affinity to GABA-gated chloride channel (unknown origin) at 1 uM by antagonist radioligand binding assay relative to control
# [9] = molecular target: Neuropeptide Y receptor type 2 (Homo sapiens) (UniProt P49146); assay: Displacement of [125I]peptide YY from human Y2 receptor at 10 uM after 120 mins by scintillation counting analysis relative to control
# D(2) dopamine receptor = D(2) dopamine receptor (Homo sapiens, UniProt P14416); assay: Displacement of [3H]7-OH-DPAT from human recombinant dopamine D2S receptor after 60 mins by scintillation counting analysis
# Somatostatin receptor = assay: Displacement of [125I]Tyr11-somatostatin-14 from mouse SST receptor after 60 mins by scintillation counting analysis; type: protein assay
# [10] = molecular target: Proto-oncogene tyrosine-protein kinase Src (Homo sapiens) (UniProt P12931); assay: Inhibition of recombinant full length C-terminal His-tagged human Src cytoplasmic domain expressed in baculovirus expression system at 10 uM in presence of ATP relative to control
# Rattus norvegicus = organism: Rattus norvegicus; assay: Displacement of [125I]alpha-dendrotoxin from rat brain voltage-gated K channel at 10 uM after 60 mins by scintillation counting analysis relative to control
# [11] = molecular target: C-C chemokine receptor type 1 (Homo sapiens) (UniProt P32246); assay: Displacement of [125I]MIP-1alpha from human recombinant CCR1 receptor at 1 uM after 120 mins by scintillation counting analysis relative to control
# [12] = molecular target: Kappa-type opioid receptor (Homo sapiens, UniProt P41145); assay: Displacement of [3H]U69593 from human kappa receptor after 60 mins by scintillation counting analysis
# [13] = molecular target: Glycogen synthase kinase-3 alpha (Homo sapiens) (UniProt P49840); assay: Inhibition of GSK3alpha (unknown origin) at 10 uM in presence of ATP relative to control
# [14] = Tmax in Sprague-Dawley rat at 5 mg/kg, po; type: ADME, organism-based; conditions: in vivo
# [15] = molecular target: Small conductance calcium-activated potassium channel (Rattus norvegicus) (UniProt P70604+P70606+P70605); assay: Displacement of [125I]apamin from rat brain SkCa channel at 1 uM after 60 mins by scintillation counting analysis relative to control
# [16] = molecular target: Calcium/calmodulin-dependent protein kinase type 1D (Homo sapiens) (UniProt Q8IU85); assay: Inhibition of CaMK1delta (unknown origin) at 10 uM in presence of ATP relative to control
# [17] = molecular target: 5-hydroxytryptamine receptor 3A (Homo sapiens) (UniProt P46098); assay: Displacement of [3H]BRL 43694 from human recombinant 5-HT3 receptor at 10 uM after 120 mins by scintillation counting analysis relative to control
# Substance-K receptor = Substance-K receptor (Homo sapiens, UniProt P21452); assay: Displacement of [125I]NKA from human recombinant NK2 receptor after 60 mins by scintillation counting analysis
# [18] = molecular target: 5-hydroxytryptamine receptor 1B (Rattus norvegicus) (UniProt P28564); assay: Displacement of [125I]-CYP from rat brain 5-HT1B receptor at 10 uM after 120 mins by scintillation counting analysis relative to control
# [19] = molecular target: Sodium-dependent serotonin transporter (Homo sapiens, UniProt P31645); assay: Displacement of [3H]-imipramine from recombinant human 5-HT transporter after 60 mins by scintillation counting relative to control
# [20] = molecular target: Type-1 angiotensin II receptor (Homo sapiens) (UniProt P30556); assay: Displacement of [125I][Sar1,Ile8]-AT-II from human recombinant AT1 receptor at 1 uM after 120 mins by scintillation counting analysis relative to control
# [21] = Thermodynamic solubility of the compound in 30 mM phosphate buffer at 10 mM at pH 7 after 2 to 5 days by UV-HPLC analysis; type: physicochemical; conditions: read-out: Therm_solubility
# [22] = Thermodynamic solubility of the compound in fasted state simulated intestinal […] after 2 to 5 days by UV-HPLC analysis; type: physicochemical; conditions: read-out: Therm_solubility
# [23] = molecular target: RAC-alpha serine/threonine-protein kinase (Homo sapiens) (UniProt P31749); assay: Inhibition of recombinant full length His-tagged human AKT1 expressed in baculovirus expression system at 10 uM in presence of ATP relative to control
# [24] = molecular target: Casein kinase II subunit alpha (Homo sapiens) (UniProt P68400); assay: Inhibition of CK2alpha1 (unknown origin) at 10 uM in presence of ATP relative to control
# [25] = molecular target: Proto-oncogene tyrosine-protein kinase receptor Ret (Homo sapiens) (UniProt P07949); assay: Inhibition of recombinant GST-tagged human RET cytoplasmic domain (658 to 1114 residues) expressed in baculovirus expression system at 10 uM in presence of ATP relative to control
# [26] = molecular target: Small conductance calcium-activated potassium channel (Rattus norvegicus, UniProt P70604+P70606+P70605); assay: Displacement of [125I]apamin from rat brain SkCa channel after 60 mins by scintillation counting analysis
# [27] = molecular target: Galanin receptor type 2 (Homo sapiens) (UniProt O43603); assay: Displacement of [125I]-endothelin-1 from human recombinant GAL2 receptor at 10 uM after 120 mins by scintillation counting analysis relative to control
# Chain of Type-1 angiotensin II receptor (Homo sapiens) (P30556 whole entry, the tested form may be a part): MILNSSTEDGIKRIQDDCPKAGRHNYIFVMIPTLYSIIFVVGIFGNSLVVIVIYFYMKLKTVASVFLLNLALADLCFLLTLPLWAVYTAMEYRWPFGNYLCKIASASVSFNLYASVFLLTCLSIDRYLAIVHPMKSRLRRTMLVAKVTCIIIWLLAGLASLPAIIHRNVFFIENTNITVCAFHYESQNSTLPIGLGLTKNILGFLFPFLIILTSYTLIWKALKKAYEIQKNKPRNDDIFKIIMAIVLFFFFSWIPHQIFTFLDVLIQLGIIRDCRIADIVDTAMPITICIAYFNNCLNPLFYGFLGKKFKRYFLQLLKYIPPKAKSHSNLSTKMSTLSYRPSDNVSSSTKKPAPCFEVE
# Chain of C-C chemokine receptor type 1 (Homo sapiens) (P32246 whole entry): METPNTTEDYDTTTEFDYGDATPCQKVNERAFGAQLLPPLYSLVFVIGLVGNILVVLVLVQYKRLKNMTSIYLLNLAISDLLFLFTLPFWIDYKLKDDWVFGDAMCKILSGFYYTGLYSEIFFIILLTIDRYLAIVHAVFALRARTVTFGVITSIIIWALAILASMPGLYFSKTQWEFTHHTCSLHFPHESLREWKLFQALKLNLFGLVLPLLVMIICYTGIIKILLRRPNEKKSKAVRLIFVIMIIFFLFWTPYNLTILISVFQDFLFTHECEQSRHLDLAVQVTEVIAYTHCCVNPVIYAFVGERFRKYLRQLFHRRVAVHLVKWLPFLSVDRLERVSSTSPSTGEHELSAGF
# Chain of RAC-alpha serine/threonine-protein kinase (Homo sapiens) (P31749 whole entry): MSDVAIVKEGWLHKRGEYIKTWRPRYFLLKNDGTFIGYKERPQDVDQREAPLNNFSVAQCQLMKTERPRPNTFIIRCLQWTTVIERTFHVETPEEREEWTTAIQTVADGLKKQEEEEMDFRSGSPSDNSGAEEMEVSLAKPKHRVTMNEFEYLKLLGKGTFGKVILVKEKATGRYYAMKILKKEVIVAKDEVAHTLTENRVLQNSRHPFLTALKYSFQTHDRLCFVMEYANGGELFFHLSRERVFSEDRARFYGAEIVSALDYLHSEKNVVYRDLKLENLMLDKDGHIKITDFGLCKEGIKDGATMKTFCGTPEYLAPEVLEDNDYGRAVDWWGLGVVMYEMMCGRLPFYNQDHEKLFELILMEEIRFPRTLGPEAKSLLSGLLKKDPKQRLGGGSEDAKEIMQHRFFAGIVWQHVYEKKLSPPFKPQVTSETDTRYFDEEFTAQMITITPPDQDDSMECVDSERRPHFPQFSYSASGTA
# Chain of Neuropeptide Y receptor type 1 (Homo sapiens) (P25929 whole entry, the tested form may be a part): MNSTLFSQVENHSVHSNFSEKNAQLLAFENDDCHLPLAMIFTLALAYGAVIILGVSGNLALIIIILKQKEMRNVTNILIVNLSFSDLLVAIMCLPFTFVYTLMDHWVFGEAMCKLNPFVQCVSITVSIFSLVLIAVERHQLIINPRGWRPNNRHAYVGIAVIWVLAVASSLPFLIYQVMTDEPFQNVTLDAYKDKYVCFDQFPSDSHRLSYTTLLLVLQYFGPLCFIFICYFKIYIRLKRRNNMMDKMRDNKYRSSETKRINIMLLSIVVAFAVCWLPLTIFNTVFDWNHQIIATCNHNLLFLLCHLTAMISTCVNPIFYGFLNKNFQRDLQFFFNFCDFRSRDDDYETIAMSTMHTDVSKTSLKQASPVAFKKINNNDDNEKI
# Chain of Proto-oncogene tyrosine-protein kinase receptor Ret (Homo sapiens) (P07949 whole entry, the tested form may be a part): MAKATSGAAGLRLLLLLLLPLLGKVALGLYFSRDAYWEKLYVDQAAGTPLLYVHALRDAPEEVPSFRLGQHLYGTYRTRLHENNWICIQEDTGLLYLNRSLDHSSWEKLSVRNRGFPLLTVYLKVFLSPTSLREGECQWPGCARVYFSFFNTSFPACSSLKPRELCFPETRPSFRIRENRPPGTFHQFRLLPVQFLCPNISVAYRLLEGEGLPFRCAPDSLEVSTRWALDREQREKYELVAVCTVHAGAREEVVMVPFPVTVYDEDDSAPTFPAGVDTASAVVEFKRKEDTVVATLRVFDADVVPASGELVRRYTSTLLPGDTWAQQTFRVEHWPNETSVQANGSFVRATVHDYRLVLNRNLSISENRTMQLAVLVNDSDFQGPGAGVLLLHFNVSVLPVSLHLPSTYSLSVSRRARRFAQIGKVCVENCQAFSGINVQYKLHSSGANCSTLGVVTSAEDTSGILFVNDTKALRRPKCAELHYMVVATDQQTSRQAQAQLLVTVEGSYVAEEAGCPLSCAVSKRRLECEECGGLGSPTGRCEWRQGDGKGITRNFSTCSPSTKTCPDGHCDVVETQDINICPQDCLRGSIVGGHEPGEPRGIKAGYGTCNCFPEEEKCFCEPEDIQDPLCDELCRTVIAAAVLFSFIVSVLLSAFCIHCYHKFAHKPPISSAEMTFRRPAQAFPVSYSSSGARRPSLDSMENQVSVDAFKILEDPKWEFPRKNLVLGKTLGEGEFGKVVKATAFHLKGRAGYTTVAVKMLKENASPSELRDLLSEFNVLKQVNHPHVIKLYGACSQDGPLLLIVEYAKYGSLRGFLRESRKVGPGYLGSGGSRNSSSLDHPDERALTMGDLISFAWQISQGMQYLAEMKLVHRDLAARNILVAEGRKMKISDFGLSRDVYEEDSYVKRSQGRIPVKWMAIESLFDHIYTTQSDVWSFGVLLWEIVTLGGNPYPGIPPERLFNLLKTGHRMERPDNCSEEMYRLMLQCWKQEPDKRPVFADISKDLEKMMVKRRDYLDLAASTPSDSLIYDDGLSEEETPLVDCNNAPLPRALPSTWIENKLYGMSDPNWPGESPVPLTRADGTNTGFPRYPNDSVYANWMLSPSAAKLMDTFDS
# Chain of Casein kinase II subunit alpha (Homo sapiens) (P68400 whole entry, looked up, the tested form may be a part): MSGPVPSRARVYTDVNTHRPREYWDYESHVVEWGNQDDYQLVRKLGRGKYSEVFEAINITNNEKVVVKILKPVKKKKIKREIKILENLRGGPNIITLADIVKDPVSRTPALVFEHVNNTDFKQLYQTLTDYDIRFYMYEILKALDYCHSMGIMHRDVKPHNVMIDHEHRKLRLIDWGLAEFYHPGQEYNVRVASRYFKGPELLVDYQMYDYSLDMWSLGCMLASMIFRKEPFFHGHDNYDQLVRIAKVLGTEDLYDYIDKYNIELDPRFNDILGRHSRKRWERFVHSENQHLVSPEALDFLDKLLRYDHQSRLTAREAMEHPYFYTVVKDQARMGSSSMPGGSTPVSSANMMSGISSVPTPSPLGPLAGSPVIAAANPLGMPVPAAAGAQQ
# Chain of Glycogen synthase kinase-3 beta (Homo sapiens) (P49841 whole entry, looked up): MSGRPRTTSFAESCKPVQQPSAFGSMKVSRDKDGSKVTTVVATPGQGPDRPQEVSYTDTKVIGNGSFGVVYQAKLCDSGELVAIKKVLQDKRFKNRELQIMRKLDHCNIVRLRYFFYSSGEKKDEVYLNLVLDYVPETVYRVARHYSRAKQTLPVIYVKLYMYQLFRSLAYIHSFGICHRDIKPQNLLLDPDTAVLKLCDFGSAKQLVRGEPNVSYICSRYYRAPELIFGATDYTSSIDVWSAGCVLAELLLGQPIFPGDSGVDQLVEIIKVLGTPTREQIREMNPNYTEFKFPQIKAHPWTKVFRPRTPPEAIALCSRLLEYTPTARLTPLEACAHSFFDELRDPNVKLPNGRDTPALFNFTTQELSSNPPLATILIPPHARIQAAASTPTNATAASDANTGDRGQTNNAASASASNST
# Chain of 5-hydroxytryptamine receptor 1B (Rattus norvegicus) (P28564 whole entry): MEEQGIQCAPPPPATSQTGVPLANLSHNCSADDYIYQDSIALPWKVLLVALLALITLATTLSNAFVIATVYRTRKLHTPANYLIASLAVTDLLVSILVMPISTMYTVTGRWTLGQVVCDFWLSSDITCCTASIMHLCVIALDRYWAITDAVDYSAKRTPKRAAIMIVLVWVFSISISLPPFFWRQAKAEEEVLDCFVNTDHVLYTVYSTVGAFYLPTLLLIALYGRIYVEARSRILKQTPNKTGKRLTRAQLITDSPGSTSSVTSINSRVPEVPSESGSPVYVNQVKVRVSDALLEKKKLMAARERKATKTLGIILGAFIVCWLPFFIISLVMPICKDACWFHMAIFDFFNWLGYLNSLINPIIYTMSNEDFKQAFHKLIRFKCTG
# Chain of Glycogen synthase kinase-3 alpha (Homo sapiens) (P49840 2-483 limits assumed): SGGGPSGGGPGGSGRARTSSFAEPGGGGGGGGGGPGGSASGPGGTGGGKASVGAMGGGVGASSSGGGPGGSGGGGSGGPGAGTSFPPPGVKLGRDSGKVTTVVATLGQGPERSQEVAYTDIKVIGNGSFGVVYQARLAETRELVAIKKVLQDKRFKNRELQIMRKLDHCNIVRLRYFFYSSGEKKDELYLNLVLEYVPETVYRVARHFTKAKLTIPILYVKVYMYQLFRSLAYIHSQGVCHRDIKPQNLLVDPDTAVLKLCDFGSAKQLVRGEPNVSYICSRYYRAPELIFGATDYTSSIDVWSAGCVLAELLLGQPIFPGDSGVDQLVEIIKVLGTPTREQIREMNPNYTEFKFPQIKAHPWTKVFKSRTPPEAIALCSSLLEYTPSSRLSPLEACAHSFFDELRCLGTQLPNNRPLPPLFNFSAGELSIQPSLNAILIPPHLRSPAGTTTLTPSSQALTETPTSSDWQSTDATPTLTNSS
# Chain of Proto-oncogene tyrosine-protein kinase Src (Homo sapiens) (P12931 2-536 limits assumed): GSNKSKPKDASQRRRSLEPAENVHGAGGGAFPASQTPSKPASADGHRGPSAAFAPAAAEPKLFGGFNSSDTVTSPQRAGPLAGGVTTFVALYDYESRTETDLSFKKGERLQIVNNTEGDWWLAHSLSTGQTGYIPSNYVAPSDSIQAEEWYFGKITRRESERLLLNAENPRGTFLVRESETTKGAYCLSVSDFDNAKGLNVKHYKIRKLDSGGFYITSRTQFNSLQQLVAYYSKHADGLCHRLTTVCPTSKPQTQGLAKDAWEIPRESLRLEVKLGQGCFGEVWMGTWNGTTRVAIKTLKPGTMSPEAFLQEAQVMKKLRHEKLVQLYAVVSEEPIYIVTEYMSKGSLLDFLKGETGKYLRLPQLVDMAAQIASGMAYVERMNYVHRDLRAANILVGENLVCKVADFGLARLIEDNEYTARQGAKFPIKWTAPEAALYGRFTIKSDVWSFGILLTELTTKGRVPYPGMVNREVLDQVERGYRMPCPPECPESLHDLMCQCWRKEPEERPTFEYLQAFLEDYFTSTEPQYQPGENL
smiles,measurement,setting,value
CC(C)(C)NS(=O)(=O)c1ccc(-c2sc(C(=O)N[C@H]3C[C@H](C(=O)O)C3)nc2CC2CCCCC2)c2ccccc12,inhibition,[1],< 10%
same,inhibition,[2],-1%
same,inhibition,[3],-3%
same,inhibition,[4],2%
same,IC50,Nociceptin receptor,0.98 nM
same,inhibition,[5],< 10%
same,inhibition,[6],< 10%
same,inhibition,[7],< 10%
same,inhibition,[8],-10%
same,inhibition,Homo sapiens,14%
same,inhibition,[9],< 10%
same,IC50,D(2) dopamine receptor,1.8 nM
same,IC50,Somatostatin receptor,0.31 nM
same,inhibition,[10],-4%
same,inhibition,Rattus norvegicus,< 10%
same,inhibition,[11],< 10%
same,IC50,[12],1.1 nM
same,inhibition,[13],0%
same,Tmax,[14],48 min
same,inhibition,[15],< 10%
same,inhibition,[16],11%
same,inhibition,[17],12%
same,IC50,Substance-K receptor,1.2 nM
same,inhibition,[18],< 10%
same,IC50,[19],1.7 nM
same,inhibition,[20],< 10%
same,solubility thermodynamic at 10000 µM,[21],< 1 µM
same,solubility thermodynamic,[22],> 400 µM
same,inhibition,[23],-5%
same,inhibition,[24],0%
same,inhibition,[25],-3%
same,IC50,[26],0.012 nM
same,inhibition,[27],< 10%
